# Tested on: VEGF-stimulated HUVEC proliferation (Human Umbilical Vein Endothelial cells)
# Experiment: HUVEC Proliferation Assay
# Format: cell-based
# Settings: 72 h incubation, CyQuant readout, read-out: inhibited VEGF-stimulated HUVEC proliferation at a level (IC50)
# Protocol: Human Umbilical Vein Endothelial cells are purchased from Clonetics, Inc., as cryopreserved cells harvested from a pool of donors. These cells, at passage 1, are thawed and expanded in EBM-2 complete medium, until passage 2 or 3. The cells are trypsinized, washed in DMEM+10% FBS+antibiotics, and spun at 1000 rpm for 10 min. Prior to centrifugation of the cells, a small amount is collected for a cell count. After centrifugation, the medium is discarded, and the cells are resuspended in the appropriate volume of DMEM+10% FBS+antibiotics to achieve a concentration of 3×10^5 cells/mL. Another cell count is performed to confirm the cell concentration. The cells are diluted to 3×10^4 cells/mL in DMEM+10% FBS+antibiotics, and 100 μL of cells are added to a 96-well plate. The cells are incubated at 37° C. for 22 h.
# Prior to the completion of the incubation period, compound dilutions are prepared. Five-point, five-fold serial dilutions are prepared in DMSO, at concentrations 400-fold greater than the final concentrations desired. 2.5 μL of each compound dilution are diluted further in a total of 1 mL DMEM+10% FBS+antibiotics (400× dilution). Medium containing 0.25% DMSO is also prepared for the 0 μM compound sample. At the 22 h timepoint, the medium is removed from the cells, and 100 μL of each compound dilution is added. The cells are incubated at 37° C. for 2-3 h.
# During the compound pre-incubation period, the growth factors are diluted to the appropriate concentrations. Solutions of DMEM+10% FBS+antibiotics, containing either VEGF or bFGF at the following concentrations: 50, 10, 2, 0.4, 0.08, and 0 ng/mL are prepared. For the compound-treated cells, solutions of VEGF at 550 ng/mL or bFGF at 220 ng/mL for 50 ng/mL or 20 ng/mL final concentrations, respectively, are prepared since 10 μL of each will be added to the cells (110 μL final volume). At the appropriate time after adding the compounds, the growth factors are added. VEGF is added to one set of plates, while bFGF is added to another set of plates. For the growth factor control curves, the media on wells B4-G6 of plates 1 and 2 are replaced with media containing VEGF or bFGF at the varying concentrations (50-0 ng/mL). The cells are incubated at 37° C. for an additional 72 h.
# At the completion of the 72 h incubation period, the medium is removed, and the cells are washed twice with PBS. After the second wash with PBS, the plates are tapped gently to remove excess PBS, and the cells are placed at −70° C. for at least 30 min. The cells are thawed and analyzed using the CyQuant fluorescent dye (Molecular Probes C-7026), following the manufacturer's recommendations. The plates are read on a Victor/Wallac 1420 workstation at 485 nm/530 nm (excitation/emission). Raw data are collected and analyzed using a 4-parameter fit equation in XLFit. IC50 values are then determined.
row,SMILES,IC50 [nM]
1,"CC1(C)CNCc2cc(N3Cc4cccc(NCc5ccc6ncccc6c5)c4C3=O)ccc21 [Example 64, 2-(4,4-Dimethyl-1,2,3,4-tetrahydro-isoquinolin-7-yl)-7-[(quinolin-6-ylmethyl)-amino]-2,3-dihydro-isoindol-1-one]",< 500
2,"CC(C)(C)c1cc(N2Cc3cccc(NCc4ccncc4)c3C2=O)[nH]n1 [Example 46, 2-(5-tert-butyl-2H-pyrazol-3-yl)-7-[(pyridin-4-ylmethyl)-amino]-2,3-dihydro-isoindol-1-one]",< 500
3,"CC(C)(C)c1ccc(N2Cc3cccc(NCc4c[nH]c5ncccc45)c3C2=O)cc1 [Example 32, 2-(4-tert-butyl-phenyl)-7-[(1H-pyrrolo [2,3-b]pyridin-3-ylmethyl)-amino]-2,3-dihydro-isoindol-1-one]",< 500
4,"CC(C)(C)c1ccc(N2Cc3ccnc(NCc4ccncc4)c3C2=O)cc1 [Example 80, 2-(4-tert-butyl-phenyl)-4-[(pyridin-4-ylmethyl)-amino]-1,2-dihydro-pyrrolo[3,4-c]pyridin-3-one]",< 500
5,"CC(C)(C)c1ccc(N2Cc3ccnc(NCc4ccnc(N)c4)c3C2=O)cc1 [Example 83, 4-[(2-amino-pyridin-4-ylmethyl)-amino]-2-(4-tert-butyl-phenyl)-1,2-dihydro-pyrrolo[3,4-c]pyridin-3-one]",< 500
6,CC1(C)CNCc2cc(N3Cc4cccc(NCc5ccncc5)c4C3=O)ccc21 [Example 20],< 500
7,CC1(C)CNCc2cc(N3Cc4cccc(NCc5c[nH]c6ncccc56)c4C3=O)ccc21 [Example 35],< 500
8,"CC(=O)N1CC(C)(C)c2ccc(N3Cc4cccc(NCc5ccncc5)c4C3=O)cc21 [Example 16, 2-(1-acetyl-3,3-dimethyl-2,3-dihydro-1H-indol-6-yl)-7-[(pyridin-4-ylmethyl)-amino]-2,3-dihydro-isoindol-1-one]",< 500
9,"CC(C)(C)c1ccc(N2Cc3cccc(NCc4ccncc4)c3C2=O)cc1 [Example 1, 2-(4-(1,1-Dimethylethyl)phenyl)-7-((4-pyridinylmethyl)amino)-2,3-dihydro-1H-isoindol-1-one]",< 500
10,CC1(C)CNc2cc(N3Cc4cccc(NCc5ccncc5)c4C3=O)ccc21 [Example 17],< 500

# From patent publication US7320992B2, “Substituted 2,3-dihydro-1h-isoindol-1-one derivatives and methods of use” (Amgen Inc., priority 2003, dated 2008)
